Data from patent US12685733B2, “Indole molecules and use thereof in the inhibition of DNA polymerases” (BioVentures, LLC, priority 2019, dated 2026).
Where two headings read alike, the source gives them in different places.

How the values were obtained:
hpol η = target: T1, hpol η (Homo sapiens, UniProt Q9Y253); test: Gel-based primer extension assay; type: biochemical; conditions: 10 μM; 2 nM hpol η
T1 construct: hpol η (residues 1-437); made in house
T1 sequence (Q9Y253 1-437): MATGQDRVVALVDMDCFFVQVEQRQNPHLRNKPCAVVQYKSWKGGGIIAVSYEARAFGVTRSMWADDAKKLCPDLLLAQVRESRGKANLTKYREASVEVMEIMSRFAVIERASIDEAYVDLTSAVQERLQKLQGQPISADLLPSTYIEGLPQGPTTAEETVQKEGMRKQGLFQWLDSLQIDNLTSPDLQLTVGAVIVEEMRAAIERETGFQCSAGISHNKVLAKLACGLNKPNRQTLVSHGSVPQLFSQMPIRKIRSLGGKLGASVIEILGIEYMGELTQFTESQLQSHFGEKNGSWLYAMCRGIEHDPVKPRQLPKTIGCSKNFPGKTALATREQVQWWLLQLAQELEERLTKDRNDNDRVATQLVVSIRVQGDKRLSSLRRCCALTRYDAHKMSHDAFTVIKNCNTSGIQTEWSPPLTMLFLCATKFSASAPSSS

hpol ι = target: T2, hpol ι (Homo sapiens, UniProt Q9UNA4); test: Gel-based primer extension assay; type: biochemical; conditions: 10 μM; 10 nM hpol ι
T2 construct: hpol ι (residues 1-446); made in house
T2 sequence (Q9UNA4 1-446): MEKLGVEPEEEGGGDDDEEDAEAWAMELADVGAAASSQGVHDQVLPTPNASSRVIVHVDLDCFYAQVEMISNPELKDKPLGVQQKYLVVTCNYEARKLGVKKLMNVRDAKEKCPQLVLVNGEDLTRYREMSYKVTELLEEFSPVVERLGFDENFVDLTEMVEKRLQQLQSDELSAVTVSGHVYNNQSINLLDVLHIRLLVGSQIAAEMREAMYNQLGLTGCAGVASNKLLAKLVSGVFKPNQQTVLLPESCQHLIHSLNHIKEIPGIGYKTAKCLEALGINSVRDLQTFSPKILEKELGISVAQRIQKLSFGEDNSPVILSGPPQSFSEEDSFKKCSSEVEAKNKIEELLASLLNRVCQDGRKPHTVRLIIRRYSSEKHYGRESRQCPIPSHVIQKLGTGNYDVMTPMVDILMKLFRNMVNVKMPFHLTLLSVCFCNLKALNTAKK

T98G cells = test: Clonogenic survival assay; type: cell-based, human
[1] = tested on: hpol κ-deficient HAP-1 cells; test: Alkaline comet assay; type: cell-based, human
Protocol: (§1) To evaluate DNA damage upon treatment with TMZ and the compound IAG-10, the alkaline comet assay was performed using protocol as described by the manufacturer (Trevigen, Gaithersburg, MD). Briefly, 100 000 HAP-1 cells per well for both the hpol κ-proficient and hpol κ-deficient cell types were plated in a 12-well dish. Both types of cells were treated with 0.5 μM of IAG-10 alone or in combination with TMZ (100 μM) for 1 h. Cells treated with DMSO served as the control. Following treatment, cells were harvested, washed in ice-cold Ix PBS, and counted. The cells were then suspended in low-melting agarose to a final dilution of 200-300 cells per well on the comet slide. The comet slides with wells coated with cell/agarose mixture were incubated at 4° C. in the dark to allow the agarose to solidify before immersing the slides in proprietary lysis solution for 1 h. Each comet slide was then immersed in an alkaline unwinding solution (200 mM NaOH, 1 mM EDTA) for 20 min at RT before placing them in the electrophoresis unit in […] of the same solution. Samples were electrophoresed at 21 V for 30 min at 4° C. The comet slides were washed and dried completely at 37° C. before staining with SYBR Gold diluted in TE buffer (10 mM Tris-HCl, pH 7.5, 1 mM EDTA). The comets were visualized using an EVOS FL Auto microscope (Life Technologies, Carlsbad, CA) set at 10× magnification and were scored using CometScore software. All experiments were repeated in 3 biological replicates with at least 60 comets scored for each condition. Results were plotted using Graphpad Prism, as the percent of DNA in the tail of each comet, and statistical significance between treatment conditions was calculated using one-way ANOVA with the Bonferroni posthoc correction.

[2] = tested on: hpol κ-proficient HAP-1 cells; test: Alkaline comet assay; type: cell-based, human
Protocol: as §1

hpol κ [3] = target: T3, hpol κ (Homo sapiens, UniProt Q9UBT6); test: Gel-based primer extension assay; type: biochemical; design: hpol κ (residues 19-526); made in house; conditions: 10 μM; 1 nM hpol κ
T3 sequence (Q9UBT6 19-526): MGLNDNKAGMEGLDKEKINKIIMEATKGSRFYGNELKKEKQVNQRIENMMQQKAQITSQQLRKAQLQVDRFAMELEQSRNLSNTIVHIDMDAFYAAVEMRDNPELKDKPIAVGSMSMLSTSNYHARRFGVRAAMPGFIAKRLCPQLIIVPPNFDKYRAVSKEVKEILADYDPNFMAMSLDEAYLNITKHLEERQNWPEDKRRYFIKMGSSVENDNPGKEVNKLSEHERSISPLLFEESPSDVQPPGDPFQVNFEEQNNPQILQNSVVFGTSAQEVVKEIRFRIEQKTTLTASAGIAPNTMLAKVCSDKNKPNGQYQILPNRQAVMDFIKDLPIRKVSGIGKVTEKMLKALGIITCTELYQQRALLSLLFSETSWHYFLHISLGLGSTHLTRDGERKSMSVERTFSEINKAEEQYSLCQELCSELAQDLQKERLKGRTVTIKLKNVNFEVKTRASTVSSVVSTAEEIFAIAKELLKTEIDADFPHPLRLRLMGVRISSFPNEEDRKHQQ

hpol κ [4] = target: T3, hpol κ; test: Fluorescence-based (TAMRA/BHQ strand displacement) DNA polymerase activity assay
[5] = 100 μM TMZ + 0.5 μM IAG-10, 1 h
[6] = single agent, 1 h: 0.5 μM IAG-10 or 100 μM TMZ

Cl.[H]/N=C(\N)NN=Cc1cn(C(=O)c2cccc3ccccc23)c2ccc(Cl)cc12 [IAG-10, (E)-2-((1-(1-naphthoyl)-5-chloro-1H-indol-3-y1)methylene)hydrazine-1-carboximidamide hydrochloride]
polymerase activity relative to DMSO control (hpol η): only hpol κ was inhibited | polymerase activity relative to DMSO control (hpol ι): only hpol κ was inhibited | combination index (TMZ and IAG-10, Chou-Talalay) (T98G cells; IAG-10 50 nM + TMZ): 0.09 | decrease of cell proliferation (clonogenic) compared to TMZ alone (T98G cells; IAG-10 50 nM along with TMZ, 3 hrs): ~ 10 fold | decrease in GBM-derived cell proliferation compared to NT2 cells (T98G cells; IAG-10 alone, concentrations above that used for combination): ~ 2 fold | DNA damage (percent DNA in the tail), combination [1, 5]: did not increase further | DNA damage (percent DNA in the tail) compared to control [1, 6]: did not increase DNA damage over control | DNA damage (percent DNA in the tail), combination [2, 5]: increased even further | DNA damage (percent DNA in the tail) compared to control [2, 6]: approximately twofold | polymerase activity relative to DMSO control (hpol κ [3]): only hpol κ was inhibited | polymerase activity relative to DMSO control (hpol κ [4]; 10 μM, 25 nM hpol κ, comparison with A, B, X family pols): only hpol κ activity was inhibited | % Activity Mean (hpol κ activity) (hpol κ [4]; IAG compounds, 40 μM, rate relative to DMSO control, three independent experiments): 0.0% | specificity for hpol κ over η (hpol κ [4]; after altering the reaction conditions (lower enzyme and DNA)): ~ 30 fold | specificity for hpol κ over η (hpol κ [4]; before altering the reaction conditions): ~ 2 fold | IC50 (hpol κ [4]; read-out: IC50 against hpol κ, structure-activity study, 1 nM hpol κ, 50 nM DNA): 7.2 µM | IC50 (hpol κ [4]; read-out: IC50 for inhibition of hpol κ, 0.5 nM DNA, 0.1 nM hpol κ, 95% confidence interval in parentheses): 0.72 µM | IC50 (hpol κ [4]; read-out: IC50 for inhibition of hpol κ, 1 nM DNA, 95% confidence interval in parentheses): 1.1 µM | IC50 (hpol κ [4]; read-out: IC50 for inhibition of hpol κ, 2.5 nM DNA, 95% confidence interval in parentheses): 1.4 µM | IC50 (hpol κ [4]; read-out: IC50 for inhibition of hpol κ, 10 nM DNA, 95% confidence interval in parentheses): 8.9 µM | IC50 (hpol κ [4]; read-out: IC50 for inhibition of hpol κ, 25 nM DNA, 95% confidence interval in parentheses): 8.9 µM | IC50 (hpol κ [4]; read-out: IC50 for inhibition of hpol κ, 50 nM DNA, 95% confidence interval in parentheses): 7.2 µM | turnover number (kcat), hpol κ-catalyzed dTTP insertion (hpol κ [4]; steady-state kinetics with varying inhibitor concentration): sharp decrease
